Experimental data published in US20080058351A1, “Novel heterobicyclic compounds” (Concert Pharmaceuticals Inc., priority 2006, published 2008).

Experiments:
[1] = biological target: benzodiazepine receptor of the rat cerebral cortex; experiment: Benzodiazepine receptor binding, competition with [3H]flunitrazepam; conditions: [3H]flunitrazepam 0.4 nM, 4° C., 60 minutes
Method: Benzodiazepine Receptor Binding. Compound 1 and Indiplon were compared in their ability to bind to compete with [^3H] flunitrazepam (0.4 nM) for binding to the benzodiazepine receptor of the rat cerebral cortex using the method of Speth, R C et al., 1979, Life Sci., 24:351-358. Varying concentrations of Indiplon or Compound 1 (30 pM-1 μM) were used. Diazepam (3 μM) was used as a non-specific receptor binding compound. Binding was allowed to proceed at 4° C. for 60 minutes. Quantification of binding was determined by scintillation counting.

[2] = Human liver microsome metabolic stability assay (separate incubations); format: in vitro ADME; conditions: 1.0 mg/mL human liver microsomes
Source text: Human Microsomal Assay: The metabolic stability of the present compounds may be evaluated in one or more microsomal assays that are known in the art. See, for example, Obach, R. S. Drug Metab Disp 1999, 27, p. 1350 “Prediction of human clearance of twenty-nine drugs from hepatic microsomal intrinsic clearance data: An examination of in vitro half-life approach and nonspecific binding to microsomes”; Houston, J. B. et al., Drug Metab Rev 1997, 29, p. 891 “Prediction of hepatic clearance from microsomes, hepatocytes, and liver slices”; Houston, J. B. Biochem Pharmacol 1994, 47, p. 1469 “Utility of in vitro drug metabolism data in predicting in vivo metabolic clearance”; Iwatsubo, T et al., Pharmacol Ther 1997, 73, p. 147 “Prediction of in vivo drug metabolism in the human liver from in vitro metabolism data”; and Lave, T. et al., Pharm Res 1997, 14, p. 152 “The use of human hepatocytes to select compounds based on their expected hepatic extraction ratios in humans”; each of which are incorporated herein in their entirety.
The objectives of this study were to determine the metabolic stability of the test compounds in pooled liver microsomal incubations and to perform full scan LC-MS analysis for the detection of major metabolites. Samples of the test compounds, exposed to pooled human liver microsomes, were analyzed using HPLC-MS (or MS/MS) detection. For determining metabolic stability, multiple reaction monitoring (MRM) was used to measure the disappearance of the test compounds. For metabolite detection, Q1 full scans were used as survey scans to detect the major metabolites.
Experimental Procedures: Human liver microsomes were obtained from Absorption Systems L.P. (Exton, Pa.). Details about the matrices used in the experiments are shown below. The incubation mixture was prepared as follows:
Reaction Mixture Composition
Incubation of Test Compounds with Liver Microsomes: The reaction mixture, minus cofactors, was prepared. An aliquot of the reaction mixture (without cofactors) was incubated in a shaking water bath at 37° C. for 3 minutes. Another aliquot of the reaction mixture was prepared as the negative control. The test compound was added into both the reaction mixture and the negative control at a final concentration of 1 μM. An aliquot of the reaction mixture was prepared as a blank control, by the addition of plain organic solvent (not the test compound). The reaction was initiated by the addition of cofactors (not into the negative controls), and then incubated in a shaking water bath at 37° C. Aliquots (200 μL) were withdrawn in triplicate at 0, 15, 30, 60, and 120 minutes and combined with 800 μL of ice-cold 50/50 acetonitrile/dH2O to terminate the reaction. The positive controls, testosterone and propranolol, were run simultaneously with the test compounds in separate reactions.
All samples were analyzed using LC-MS (or MS/MS). An LC-MRM-MS/MS method was used for metabolic stability. Also, Q1 full scan LC-MS methods were performed on the blank matrix and the test compound incubation samples. The Q1 scans served as survey scans to identify any sample unique peaks that might represent the possible metabolites. The masses of these potential metabolites can be determined from the Q1 scans.

[3] = Co-incubation of Compound 1 and Indiplon with human liver microsomes; format: in vitro ADME
Method: Co-incubation of Compound 1 and Indiplon with Human Liver Microsomes: In another set of experiments Compound 1 and Indiplon were incubated together with human liver microsomes and their metabolism followed over time to eliminate any potential variability in samples. The reaction mixture compositions utilized in these experiments were as follows:
Reaction Mixture Composition A:
Reaction Mixture Composition B:
Reaction Mixture Composition C:
HPLC-grade solvents were used for preparation of all solutions. Dosing solutions of test agents were initially prepared at five times the final concentrations of the various reaction mixtures indicated above. Dosing solutions were warmed to 37° C. prior to the start of the assay. Two sets of triplicate wells were prepared in a 96-well deep well plate for each reaction mixture and warmed to 37° C. At the start of the assay, dosing solutions were diluted five-fold into the reaction wells. The reaction plate was incubated at 37° C., and 30 μL aliquots removed immediately after start (15 sec), and after each of 10 min, 20 min, 30 min, 40 min and 60 min of reaction. The aliquots were added to 30 μL of ice cold STOP Solution (acetonitrile containing 0.3% acetic acid with 3 mM haloperidol as an internal standard) in a separate 96-well plate. The stopped reactions were incubated at least 10 min at −20° C., and 30 μL of water was added. The plates were centrifuged for 15 min at 2000 rpm, 4° C. Approximate 60 μL of the supernatant was removed without disturbing the pellet and transferred to a fresh 96-well plate for analysis. Analysis samples were stored at −20° C. and analyzed by LC-MS.

[4] = biological target: benzodiazepine site on the GABAA receptor (rat cortex); experiment: Inhibition of [3H]flunitrazepam binding to rat cortex membranes; conditions: read-out: IC50 for displacing [3H]flunitrazepam binding to rat cortex
[5] = test system: GABAA receptor (rat cortex membranes); experiment: Enhancement of [35S]TBPS binding to rat cortex membranes
Source text: A further index of activity at the benzodiazepine site on the GABAA receptor is the ability to increase the binding of [^35S] t-butylbicyclophosphorothionate (TBPS) to rat cortex membranes. TBPS binds to a site on the GABAA receptor which is closely associated with the chloride channel, and an increase in TBPS binding correlates with increased activation of the chloride conductance (i.e., enhanced GABAA receptor function). Compounds which act as agonists at the benzodiazepine site increase TBPS binding to varying degrees, which reflects their relative efficacies.

## CC(=O)N(C)c1cccc(-c2ccnc3c(C(=O)c4cccs4)cnn23)c1 [Compound 1, N-d3-Methyl-N-{3-[3-(thiophene-2-carbonyl)-pyrazolo[1,5-a]pyrimidin-7-yl]-phenyl}-acetamide]
[1]
  IC50: 2.9 nM
  Ki: 2.4 nM

## [2H]C([2H])([2H])N(C(C)=O)c1cccc(-c2ccnc3c(C(=O)c4cccs4)cnn23)c1 [Compound 1, N-d3-Methyl-N-{3-[3-(thiophene-2-carbonyl)-pyrazolo[1,5-a]pyrimidin-7-yl]-phenyl}-acetamide]
[2]; 1 μM test compound
  half life: 1.24 h
  % remaining after 60 minutes of exposure: 66%
  % remaining after 120 minutes of exposure: 59%
[2]; 1 μM
  ratio of half lives of Compound 1 to Indiplon: 1.261
[3]; 0.1 μM each, 1.0 mg/ml human microsomes (FIG. 1 panel B)
  half-life: 4.557 h
[3]; 0.1 μM each, 1.0 mg/ml human microsomes (panel B)
  ratio of half lives of Compound 1 to Indiplon: 1.257
[3]; 0.2 μM each, 2.0 mg/ml human microsomes (FIG. 1 panel C)
  half-life: 2.543 h
[3]; 0.2 μM each, 2.0 mg/ml human microsomes (panel C)
  ratio of half lives of Compound 1 to Indiplon: 1.312
[3]; 0.5 μM each, 1.0 mg/ml human microsomes (FIG. 1 panel A)
  half-life: 3.405 h
[3]; 0.5 μM each, 1.0 mg/ml human microsomes (panel A)
  ratio of half lives of Compound 1 to Indiplon: 1.260

## CC(=O)N(C)c1cccc(-c2ccnc3c(C(=O)c4cccs4)cnn23)c1 [Indiplon, N-methyl-N-[3-[3-(2-thienylcarbonyl)-pyrazolo[1,5-a]pyrimidin-7-yl]phenyl]acetamide]
[2]; 1 μM test compound
  % remaining after 60 minutes of exposure: 50%
  % remaining after 120 minutes of exposure: 42%
[2]; pooled human liver microsomes, 1 μM test compound
  half-life at 1 μM: 0.983 h
[1]
  IC50: 3.6 nM
  Ki: 3 nM
[3]; human liver microsomes, 0.1 μM each, 1.0 mg/ml human microsomes (FIG. 1 panel B)
  half-life at 0.1 μM: 3.62 h
[3]; human liver microsomes, 0.2 μM each, 2.0 mg/ml human microsomes (FIG. 1 panel C)
  half-life at 0.2 μM: 1.94 h
[3]; human liver microsomes, 0.5 μM each, 1.0 mg/ml human microsomes (FIG. 1 panel A)
  half-life at 0.5 μM: 2.7 h

## CN1C(=O)CN=C(c2ccccc2)c2cc(Cl)ccc21 [diazepam]
[4]
  IC50: 17 nM
[5]
  Emax (maximum enhancement of TBPS binding over the concentration range employed): 55%

## CN1C(=O)CN=C(c2ccccc2F)c2cc([N+](=O)[O-])ccc21 [flunitrazepam]
[4]
  IC50: 114 nM

## CCN(CC)CCN1C(=O)CN=C(c2ccccc2F)c2cc(Cl)ccc21 [flurazepam]
[5]
  Emax (maximum enhancement of TBPS binding over the concentration range employed): 71%

## Cc1nnc2n1-c1ccc(Cl)cc1C(c1ccccc1Cl)=NC2 [triazolam]
[4]
  IC50: 0.5 nM
[5]
  Emax (maximum enhancement of TBPS binding over the concentration range employed): 78%

## Cc1ccc(-c2nc3ccc(C)cn3c2CC(=O)N(C)C)cc1 [zolpidem]
[4]
  IC50: 26 nM
